According to patent US20230047208A1, “RNA Splicing Modulation” (The General Hospital Corporation, priority 2020, published 2023):

What was measured:
MAPT exon 10 = assay: MAPT minigene exon 10 splicing in transfected cell lines; format: cell-based; details: 60 μM, 24 hours, MAPT minigenes, all three mutations tested
Description: FIGS. 4C-4F Upper row: The sequences at the 5′ splice site of Exon X in patient cells and minigene constructs are shown (FIGS. 4C-4F). The sequences around the 5′ splice site of Exon X are shown in LOGO plots, with the closely matched CNN motifs indicated beneath the plots. […] Middle row: RT-PCR experiments validated treatment responses in patient cell lines carrying specific splice site mutations. The upper bands indicate the isoform in which the middle Exon X is included while the lower bands indicate the isoform in which the middle Exon X is skipped. Each set of gels is one of the triplicates used to generate the bar plots beneath. […] The statistical significance, as shown in FIGS. 4C-4F, was determined via two-tailed, unpaired Student's test: *p<0.05; **p<0.01; ***p<0.001.
In another example from Table 18, several MAPT minigenes encompassing exons 9 to 11 and flanking exon 10 intronic sequences, with the three mutations listed in Table 17: c.1866+3 G>A, c.1865 G>A or c.1788 T>G were prepared. These mutations were predicted by SpliceA1 to promote inclusion of MAPT exon 10. […] An increase in MAPT exon 10 inclusion is responsible for familial frontotemporal dementia and Parkinsonism linked to chromosome 17 (FTDP-17, MIM #600274). […]

[1] = tested on: human ELP1 gene with a Exon 20 splice mutation; assay: In vivo full-length and Δ20 ELP1 mRNA by RT-qPCR in TgFD9 mice; set-up: species or system TgFD9 transgenic mice; details: oral gavage once daily for 7 days, 10, 30, 60 or 100 mg/kg
Procedure: FIGS. 7A-7G show the relative expression of full-length (FL) and Δ20 ELP1 mRNA (left panel), and ELP1 protein quantification (right panel) in brain (FIG. 7A) and liver (FIG. 7B) after oral doses of Compound (I) ranging from 10 to 100 mg/kg in adult transgenic TgFD9 mouse (n=4-6 mice in each treatment group). Comparisons were done within the same group, against the vehicle-treated mice. In the figure, *p<0.05; **p<0.01; ***p<0.001.
FIGS. 7C-E show the relative expression of full-length (FL) and Δ20 ELP1 mRNA (left graphs), and ELP1 protein quantification (right graphs) in kidney (FIG. 7C), heart (FIG. 7D) and skin (FIG. 7E) after oral doses of Compound (I) ranging from 10 to 100 mg/kg in adult transgenic TgFD9 mouse (n=4-6 mice in each treatment group). […] The levels of compound were measured using mass spectrometry. […]
Compound (I) was evaluated in vivo to determine whether splicing correction can lead to a concomitant increase in ELP1 protein. […]
Brain, liver, lung, kidney, heart and skin tissues were removed and snap frozen in liquid nitrogen. […] The yield, purity and quality of the total RNA for each sample were determined using a Nanodrop ND-1000 spectrophotometer. Full-length and mutant ELP1 mRNA expression was quantified by quantitative real-time PCR (qRT-PCR) analysis using CFX384 Touch Real-Time PCR Detection System (BioRad). […] Data were analyzed using SDS software.

Structure (SMILES): Clc1nc(NCc2ccncc2)c2cc[nH]c2n1 [Compound (I), 2-chloro-N-(pyridin-4-ylmethyl)-7H-pyrrolo[2,3-d]pyrimidin-4-amine]
- exon 10 splicing (MAPT exon 10): significantly promoted exon 10 exclusion
- full-length ELP1 transcript [1]: increased full-length ELP1 transcript in a dose-dependent manner
